What was measured:
[1] = tested on: New Zealand white rabbits; experiment: Immunogenicity of synthetic ASPD in rabbits (serum dot blot); format: in vivo, rabbit; conditions: rabbits immunized six times with 100 μg; Freund's adjuvant, aluminum hydroxide adjuvant, or no adjuvant
Description: New Zealand white rabbits (3 per each condition) were immunized six times with 100 μg of synthetic ASPD using Freund's adjuvant, aluminum hydroxide adjuvant, and no adjuvant. Thereafter, the whole blood was collected and the reactivity to the synthetic ASPD in serum was evaluated by dot blot.

[2] = target: anti-ASPD polyclonal antibody (rpASD1); experiment: Dissociation constant with rpASD1 antibody by surface plasmon resonance; format: binding, rabbit; conditions: ASPD immobilized as ligand, rpASD1 as analyte, SPR; result in words
old cynomolgus monkey = experiment: Subcutaneous immunization of old cynomolgus monkey with ASPD; format: in vivo
[3] = Storage stability at −80° C. (calibration curve slope in sandwich ELISA with two ASPD-specific antibodies); format: physicochemical; conditions: stored at −80° C. for 0 month, 3 months, and 6 months
Description: A cell secreted-type ASPD structure obtained by expressing hAPP695-sw-G33I of Test Example 14 was stored at −80° C. for 0 month, 3 months, and 6 months. The samples thus obtained were subjected to measurement performed with a sandwich ELISA using two types of ASPD-specific antibodies (neutralizing antibodies) to prepare a calibration curve.

dissociation constant (KD) / reactivity to rpASD1 [2]: equivalent
Substance: synthetic ASPD: in vitro synthesized spherical Aß assembly produced by slowly stirring a liquid containing wild type Aß1-42
reactivity to the synthetic ASPD in serum (dot blot) [1]: sufficient reactivity was obtained in all the rabbits even without using adjuvant
brain glucose metabolism (neural activity) (old cynomolgus monkey): increased
storage stability (slope of primary regression line of ELISA calibration curve) [3]: low storage stability
